Experimental data taken from patent US9150505B2, “Prophylactic or therapeutic agent for diabetes or obesity” (AJINOMOTO CO., INC., priority 2010, dated 2015).
Where a name gives a salt, the structure may show the parent alone.

biological target: T1, human CaSR (Homo sapiens, UniProt P41180); assay: Assessment of CaSR agonistic activity (Ca2+ fluorescence, FLIPR, hCaSR-transfected 293E cells); type: cell-based; details: human CaSR-expressing 293E cells, 1.5 mM CaCl2 assay buffer, 3-minute change in fluorescence intensity
T1 construct: expressed in transfected cells; host or cells: 293E cells (EBNA1-expressing HEK293, ATCC No. CRL-10852), transient transfection of hCaSR/pcDNA3.1
T1 sequence (P41180 20-1078): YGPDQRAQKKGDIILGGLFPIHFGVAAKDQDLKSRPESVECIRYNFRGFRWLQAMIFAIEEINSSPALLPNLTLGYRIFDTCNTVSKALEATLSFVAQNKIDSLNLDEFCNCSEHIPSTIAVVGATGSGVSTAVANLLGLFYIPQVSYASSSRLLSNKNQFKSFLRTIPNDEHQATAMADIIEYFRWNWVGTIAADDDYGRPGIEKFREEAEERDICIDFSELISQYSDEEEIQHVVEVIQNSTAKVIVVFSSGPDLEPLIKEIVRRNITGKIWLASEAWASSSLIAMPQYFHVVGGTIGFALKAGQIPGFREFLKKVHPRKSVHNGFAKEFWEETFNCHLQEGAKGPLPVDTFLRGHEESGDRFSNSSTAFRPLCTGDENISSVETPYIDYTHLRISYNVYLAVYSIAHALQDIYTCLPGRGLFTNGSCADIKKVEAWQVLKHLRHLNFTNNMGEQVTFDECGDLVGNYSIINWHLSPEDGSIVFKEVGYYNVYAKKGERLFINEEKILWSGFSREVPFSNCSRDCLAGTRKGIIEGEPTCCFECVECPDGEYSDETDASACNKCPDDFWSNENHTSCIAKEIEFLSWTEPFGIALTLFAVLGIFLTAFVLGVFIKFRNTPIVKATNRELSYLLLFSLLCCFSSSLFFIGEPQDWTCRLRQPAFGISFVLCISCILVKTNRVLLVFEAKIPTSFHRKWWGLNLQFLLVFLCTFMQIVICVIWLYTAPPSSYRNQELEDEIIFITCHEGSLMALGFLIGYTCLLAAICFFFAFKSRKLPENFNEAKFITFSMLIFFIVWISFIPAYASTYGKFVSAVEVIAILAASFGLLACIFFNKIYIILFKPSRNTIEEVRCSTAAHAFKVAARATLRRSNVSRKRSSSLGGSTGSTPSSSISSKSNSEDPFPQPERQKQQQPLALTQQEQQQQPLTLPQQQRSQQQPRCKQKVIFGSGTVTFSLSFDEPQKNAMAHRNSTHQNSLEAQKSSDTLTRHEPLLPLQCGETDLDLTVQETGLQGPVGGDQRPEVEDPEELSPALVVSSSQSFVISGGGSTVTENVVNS
Protocol: CaSR gene was prepared according to the method described in Example 1 of WO07/55393. The resulting recombinant plasmid was used to generate human CaSR-expressing plasmid hCaSR/pcDNA3.1.
293E cells (EBNA1-expressing IIEK293 cells, ATCC No. CRL-10852) were cultured in DMEM ([…] Glucose-containing Dulbecco's modified Eagle medium, Nacalai Tesque) containing 10% bovine fetal serum in the presence of 250 μg/ml of G418. The cells were seeded on a 10 cm-diameter petri dish at 1.8×10^6 cells/15 ml, and left to stand in a CO2 incubator (5% CO2, 37° C.) for 24 hours. Thereafter, human CaSR expression plasmid hCaSR/pcDNA3.1 was transfected with transfection reagent Mirus Trans IT 293 (Takara Bio). Following static culture in a CO2 incubator for 24 hours, the cells were harvested with 10% bovine fetal serum-containing DMEM and seeded on a poly-D-lysine coat 384 well plate (Falcon) at 15,000 cells/well. Following static culture in a CO2 incubator for 24 hours, the medium was removed and the resultant was added with 50 μl/well of Ca^2+ fluorescent indicator Calcium 4 Assay Kit (Molecular Devices) dissolved in an assay buffer (146 mM NaCl, 5 mM KCl, 1 mM MgSO4, 1 mg/ml Glucose, 20 mM HEPES (PH 7.2), 1.5 mM CaCl2), and left to stand at 37° C. for an hour and then at room temperature for 30 minutes to allow intake of the indicator. The above-mentioned 384-well plate was transferred to FLIPR (Molecular Devices) and added with 12.5 μl/well of a compound dissolved in a 0.1% BSA-containing assay buffer to measure 3-minute change in the fluorescence intensity.
The difference between maximum and minimum fluorescence intensities before and after compound addition (RFU (Max−Min)) was determined by FLIPR automatic calculation. An activity rate was calculated where RFU (Max−Min) upon addition of a compound at a maximum concentration was defined 100% and RFU (Max−Min) upon addition of DMSO as a substitute for the compound at the same concentration was defined 0%. The rate was subjected to curve fitting using spreadsheet software Xfit to determine EC50 value, i.e., a compound concentration upon 50% activity rate.

For N[C@@H](CSC(=O)Nc1cccc(S(=O)(=O)O)c1)C(=O)O [Example 4, (2R)-2-amino-3-{[(3-sulfophenyl)carbamoyl]sulfanyl}propanoic acid], which EC50 is on record?
The EC50 was 40 nM.

For N#CCC[C@H](N)COC(=O)Nc1cc(Cl)cc(S(=O)(=O)O)c1O [Example 12, 3-({[(2S)-2-amino-4-cyanobutoxy]carbonyl}amino)-5-chloro-2-hydroxybenzene-1-sulfonic acid], which EC50 is on record?
Its EC50 is 1100 nM.

Which EC50 does the source give for Cc1nnc([C@@H](N)CCC(=O)Nc2cc(Cl)cc(S(=O)(=O)O)c2O)o1 [Example 15, 3-[(4S)-4-amino-4-(5-methyl-1,3,4-oxadiazol-2-yl)butanamide]-5-chloro-2-hydroxybenzene-1-sulfonic acid] here?
Its EC50 is 180 nM.

With N[C@@H](CCC(=O)Nc1cc(Cl)cc(S(=O)(=O)O)c1O)c1nnc(Cc2ccccc2)o1 [Example 16, 3-[(4S)-4-amino-4-(5-benzyl-1,3,4-oxadiazol-2-yl)butanamide]-5-chloro-2-hydroxybenzene-1-sulfonic acid] as the compound, how does the EC50 read?
Its EC50 is 880 nM.

How did the EC50 turn out when N[C@@H](CCC(=O)Nc1cc(Cl)cc(S(=O)(=O)O)c1O)C(=O)NNC(=O)Cc1ccccc1 [Example 17, 3-[(4S)-4-amino-5-oxo-5-(2-phenylacetohydrazide)pentanamide]-5-chloro-2-hydroxybenzene-1-sulfonic acid] was run?
Its EC50 is 250 nM.

With N[C@@H](CCC(=O)Nc1cc(Cl)cc(S(=O)(=O)O)c1O)C(=O)NCCc1cccc(Cl)c1 [Example 32, 3-[(4S)-4-amino-4-{[2-(3-chlorophenyl)ethyl]carbamoyl}butanamide]-5-chloro-2-hydroxybenzene-1-sulfonic acid] as the compound, how does the EC50 read?
The EC50 was 1200 nM.

CS(=O)(=O)NC(=O)[C@@H](N)CCC(=O)Nc1cc(Cl)cc(S(=O)(=O)O)c1O [Example 34, 3-[(4S)-4-amino-4-(methanesulfonylcarbamoyl)butanamide]-5-chloro-2-hydroxybenzene-1-sulfonic acid] was tested. Which EC50 did it give?
The EC50 was 390 nM.

With N[C@@H](CCC(=O)Nc1cc(Cl)cc(S(=O)(=O)O)c1O)C(=O)NO [Example 41, 3-[(4S)-4-amino-4-(hydroxycarbamoyl)butanamide]-5-chloro-2-hydroxybenzene-1-sulfonic acid] as the compound, how does the EC50 read?
Its EC50 is 39 nM.

N[C@@H](CCC(=O)Nc1cccc(S(=O)(=O)O)n1)C(=O)O [Example 42, (2S)-2-amino-4-[(6-sulfopyridine-2-yl)carbamoyl]butanoic acid trifluoroacetic acid salt] was tested. Which EC50 did it give?
Its EC50 is 13000 nM.

Which EC50 does the source give for C[C@H](OC(=O)Nc1cccc(S(=O)(=O)O)c1)[C@H](N)C(=O)O [Example 43, (2S,3S)-2-amino-3-{[(3-sulfophenyl)carbamoyl]oxy}butanoic acid] here?
The EC50 was 7000 nM.

Cc1c(Cl)cc(S(=O)(=O)O)cc1NC(=S)NC[C@H](N)C(=O)O [Example 47, (2S)-2-amino-3-{[(3-chloro-2-methyl-5-sulfophenyl)carbamothioyl]amino}propanoic acid] was tested. Which EC50 did it give?
Its EC50 is 4 nM.

Which EC50 does the source give for N[C@@H](CCC(=O)Nc1cc(Cl)cc(S(=O)(=O)O)c1O)C(=O)NS(=O)(=O)c1ccccc1 [Example 62, 3-[(4S)-4-amino-4-[(benzenesulfonyl)carbamoyl]butanamide]-5-chloro-2-hydroxybenzene-1-sulfonic acid] here?
Its EC50 is 2300 nM.

COC(=O)[C@@H](N)CNC(=O)Nc1cc(Cl)cc(S(=O)(=O)O)c1O [Example 67, 3-({[(2S)-2-amino-3-methoxy-3-oxopropyl]carbamoyl}amino)-5-chloro-2-hydroxybenzene-1-sulfonic acid] was tested. Which EC50 did it give?
Its EC50 is 3 nM.

For CN(C)[C@@H](CCC(=O)Nc1cc(Cl)cc(S(=O)(=O)O)c1O)C(=O)O [Example 76, (2S)-4-[(5-chloro-2-hydroxy-3-sulfophenyl)carbamoyl]-2-(dimethylamino)butanoic acid], which EC50 is on record?
Its EC50 is 1800 nM.

For N[C@@H](CNC(=O)Nc1cccc(S(=O)(=O)O)c1)C(=O)O [Example 77, (2S)-2-amino-3-{[(3-sulfophenyl)carbamoyl]amino}propanoic acid], which EC50 is on record?
Its EC50 is 18 nM.

Which EC50 does the source give for CN[C@@H](CNC(=O)Nc1cc(Cl)c(C)c(S(=O)(=O)O)c1)C(=O)O [Example 79, (2S)-3-{[(3-chloro-4-methyl-5-sulfophenyl)carbamoyl]amino}-2-(methylamino)propanoic acid] here?
Its EC50 is 313 nM.

For COc1ccc(NC(=O)NC[C@H](N)C(=O)O)cc1S(=O)(=O)O [Example 81, (2S)-2-amino-3-{[(4-methoxy-3-sulfophenyl)carbamoyl]amino}propanoic acid], which EC50 is on record?
The EC50 was 3700 nM.

COc1ccc(S(=O)(=O)O)cc1NC(=O)NC[C@H](N)C(=O)O [Example 82, (2S)-2-amino-3-{[(2-methoxy-5-sulfophenyl)carbamoyl]amino}propanoic acid] was tested. Which EC50 did it give?
Its EC50 is 1000 nM.

CC(=O)Nc1cc(S(=O)(=O)O)cc(NC(=O)NC[C@H](N)C(=O)O)c1O [Example 83, (2S)-2-amino-3-{[(3-acetamide-2-hydroxy-5-sulfophenyl)carbamoyl]amino}propanoic acid] was tested. Which EC50 did it give?
Its EC50 is 21100 nM.

How did the EC50 turn out when N[C@@H](CNC(=O)Nc1cccc(C(=O)O)c1)C(=O)O [Example 85, 3-({[(2S)-2-amino-2-carboxyethyl]carbamoyl}amino)benzoic acid] was run?
Its EC50 is 1600 nM.

Which EC50 does the source give for N[C@@H](CNC(=O)Nc1cc(C(=O)O)ccc1Cl)C(=O)O [Example 88, 3-({[(2S)-2-amino-2-carboxyethyl]carbamoyl}amino)-4-chlorobenzoic acid] here?
Its EC50 is 2300 nM.

For Cc1cc(C)c(S(=O)(=O)O)cc1NC(=O)NC[C@H](N)C(=O)O [Example 89, (2S)-2-amino-3-{[(2,4-dimethyl-5-sulfophenyl)carbamoyl]amino}propano is acid], which EC50 is on record?
The EC50 was 1100 nM.

How did the EC50 turn out when N[C@@H](CNC(=O)Nc1cccc(C(=O)O)c1O)C(=O)O [Example 90, 3-({[(2S)-2-amino-2-carboxyethyl]carbamoyl}amino)-2-hydroxybenzoic acid] was run?
The EC50 was 1000 nM.

For N[C@@H](CNC(=O)Nc1cc(C(=O)O)cc([N+](=O)[O-])c1)C(=O)O [Example 92, 3-({[(2S)-2-amino-2-carboxyethyl]carbamoyl}amino)-5-nitrobenzoic acid], which EC50 is on record?
The EC50 was 1800 nM.

Cc1ccc(C(=O)O)cc1NC(=O)NC[C@H](N)C(=O)O [Example 93, 3-({[(2S)-2-amino-2-carboxyethyl]carbamoyl}amino)-4-methylbenzoic acid] was tested. Which EC50 did it give?
Its EC50 is 5000 nM.

Cc1ccc(NC(=O)NC[C@H](N)C(=O)O)cc1C(=O)O [Example 99, 5-({[(2S)-2-amino-2-carboxyethyl]carbamoyl}amino)-2-methylbenzoic acid] was tested. Which EC50 did it give?
Its EC50 is 15000 nM.

Which EC50 does the source give for COc1c(NC(=O)NC[C@H](N)C(=O)O)cccc1C(=O)O [Example 100, 3-({[(2S)-2-amino-2-carboxyethyl]carbamoyl}amino)-2-methoxybenzoic acid] here?
Its EC50 is 5800 nM.

For COc1cc(NC(=O)NC[C@H](N)C(=O)O)cc(C(=O)O)c1 [Example 101, 3-({[(2S)-2-amino-2-carboxyethyl]carbamoyl}amino)-5-methoxybenzoic acid], which EC50 is on record?
The EC50 was 3600 nM.

How did the EC50 turn out when N[C@@H](CNC(=O)Nc1cc(S(=O)(=O)O)ccc1F)C(=O)O [Example 104, (2S)-2-amino-3-{[(2-fluoro-5-sulfophenyl)carbamoyl]amino}propanoic acid] was run?
The EC50 was 490 nM.
